Where a SMILES comes first, the peptide text is derived from it. The star is where a group is joined. Cbz = O=C(OCc1ccccc1)*
Columns and labels:
HCT116 cells = test: Cell cycle analysis (DNA content); format: cell-based; conditions: HCT116, 24 h; 1 μM MG132, 2 μM CB-5083
Experimental: FIG. 7A depicts cell cycle analysis of HCT116 cells after 24 h of treatments with DMSO, 1 μM of MG132 (MG) or 2 μM of CB-5083. […] Data were from TMT labeling proteomics. M, C and N indicates MG132, CB-5083 and NMS-873 treatment, respectively. […] HCT116 cells were treated for 24 h with DMSO, 1 μM of MG132 (MG), 2 μM of CB-5083 (CB) or 4 μM of NMS-873 (NMS), n=3.

cyclin D1 = test: Cyclin D1 level and degradation (co-treatment, CHX chase); format: cell-based
Experimental: FIGS. 12A-12C depicts Western blots detecting the effects of p97 inhibitors and MG132 on cell cycle proteins in HT29 and HCT116 cells. […] Then, 50 μM of CHX was added and cells were collected at 0 h, 0.5 h, and 1 h. FIG. 12C depicts half-life of cyclin D1 in HCT116 cells. HCT116 cells were pre-treated with 5 μM of CB-5083 or DMSO for 30 minutes before adding 50 μM of CHX, and cells were collected at 0, 10, 20, 30 min (n=3), * indicates p<0.05 according to unpaired t-test.
The concentration of MG132, CB-5083 and Baf A1 was 1 μM, 2 μM and 10 μM, respectively. […] FIGS. 13D-13E depict the half-life of Securin in HCT116 cells. HCT116 cells were treated with 1 μM of MG132, 2 μM of CB-5083, 1 μM of MG132 plus 2 μM of CB-5083 or DMSO. […] Cells were pretreated with […] for 1 h. […] For FIGS. 13B-13G, D, B, M, C and N represents DMSO, Baf A1, MG132, CB-5083 and NMS-873, respectively. Data are shown as mean±SD. Statistical analysis was performed using one-way ANOVA.
Cells were co-treated with CB-5083 and either the proteasome inhibitor MG132 or the autophagy inhibitor Bafilomycin A1 (Baf A1).

For `CC(C)C[C@@H](C=O)NC(=O)[C@H](CC(C)C)NC(=O)[C@H](CC(C)C)NC(=O)OCc1ccccc1` [MG132] (Cbz-Leu-Leu-Leu-aldehyde), the “Distribution of cells in the G0/G1 phase” value (HCT116 cells) was “reduced distribution in the G0/G1 phase”, the “Cyclin D1 turnover in cytosol and nucleus” value (cyclin D1; HCT116, 50 μM CHX) was “blocked” and the “Effect on CB-5083 mediated cyclin D1 downregulation (co-treatment)” value (cyclin D1; HCT116, 6 hours, MG132 1 μM, CB-5083 2 μM, Baf A1 10 μM) was “rescued CB-5083 mediated cyclin D1 downregulation at the protein level but not at the mRNA level”.

From patent US20230146923A1, “COMPOSITIONS AND METHODS FOR INHIBITION AND TARGETING OF P97” (California Institute of Technology, priority 2021, published 2023)
